Tested on: primary mouse hepatocytes
Assay: Gene expression (Affymetrix Mouse Genome 430 2.0) in primary mouse hepatocytes, true vs false GTX, 24 h and 48 h

Oc1cccc2cccnc12 [8Q, 8-Hydroxyquinoline]
Gene expression AA561726 average: 0.1739 | Gene expression AF000969 average: −0.1809 | Gene expression AF022072 average: 0.0814 | Gene expression AF033112 average: −0.01703 | Gene expression AF055573 average: −0.09457 | Gene expression AF069954 average: 0.1841 | Gene expression AF297615 average: −0.009333 | Gene expression AF335325 average: 0.1418 | Gene expression AI594683 average: 0.1235 | Gene expression AI747296 average: −0.0009667 | Gene expression AK005731 average: −0.03997 | Gene expression AK007854 average: 0.05973 | Gene expression AK010447 average: 0.06223 | Gene expression AK010738 average: 0.3608 | Gene expression AK014608 average: −0.2447 | Gene expression AK017734 average: 0.0878 | Gene expression AK018383 average: 0.0679 | Gene expression AK019979 average: −0.2154 | Gene expression AV095209 average: 0.2602 | Gene expression AV141095 average: −0.1725 | Gene expression AV173869 average: −0.02557 | Gene expression AV216768 average: 0.1679 | Gene expression AV219418 average: 0.4492 | Gene expression AV221299 average: 0.1454 | Gene expression AV246296 average: −0.1136 | Gene expression AV251625 average: 0.03813 | Gene expression AV254764 average: 0.02403 | Gene expression AV327248 average: 0.1176 | Gene expression BB009155 average: 0.006467 | Gene expression BB027848 average: −0.06607 | Gene expression BB043558 average: −0.2347 | Gene expression BB046347 average: 0.1608 | Gene expression BB140436 average: 0.2861 | Gene expression BB204486 average: 0.1305 | Gene expression BB223872 average: 0.05753 | Gene expression BB246912 average: 0.3325 | Gene expression BB275142 average: 0.0112 | Gene expression BB458460 average: 0.1317 | Gene expression BB463610 average: −0.2369 | Gene expression BB730977 average: 0.3298 | Gene expression BB743970 average: 0.1936 | Gene expression BB770528 average: −0.01823 | Gene expression BB781615 average: −0.006367 | Gene expression BC003284 average: 0.09 | Gene expression BC004827 average: −0.07043 | Gene expression BC005552 average: 0.1343 | Gene expression BC006713 average: −0.1035 | Gene expression BC010318 average: 0.0565 | Gene expression BC012247 average: −0.006933 | Gene expression BC012955 average: −0.3049 | Gene expression BC013893 average: −0.1654 | Gene expression BC017615 average: −0.4904 | Gene expression BC019379 average: −0.1555 | Gene expression BC019882 average: −0.1719 | Gene expression BC021352 average: 0.4721 | Gene expression BC022148 average: 0.04497 | Gene expression BC025169 average: 0.02213 | Gene expression BC026131 average: −0.0852 | Gene expression BC027026 average: 0.2479 | Gene expression BC027121 average: −0.1207 | Gene expression BC027185 average: −0.1209 | Gene expression BE956581 average: 0.403 | Gene expression BF719766 average: −0.2717 | Gene expression BG065754 average: −0.0909 | Gene expression BG066491 average: −0.1771 | Gene expression BG076151 average: −0.1887 | Gene expression BG076333 average: −0.05333 | Gene expression BG797099 average: 0.0658 | Gene expression BG967046 average: −0.09257 | Gene expression BI651416 average: 0.06777 | Gene expression BI966443 average: 0.1335 | Gene expression BM198879 average: −0.05617 | Gene expression BM200015 average: 0.08087 | Gene expression BM230508 average: 0.07603 | Gene expression BM936480 average: 0.0483 | Gene expression BQ174991 average: −0.1546 | Gene expression L21027 average: 0.2905 | Gene expression NM_007556 average: 0.0638 | Gene expression NM_007980 average: −0.5064 | Gene expression NM_007987 average: 0.03487 | Gene expression NM_008522 average: 0.0486 | Gene expression NM_008935 average: 0.4082 | Gene expression NM_009897 average: 0.111 | Gene expression NM_011075 average: 0.1618 | Gene expression NM_011176 average: 0.1358 | Gene expression NM_011316 average: 0.06377 | Gene expression NM_012006 average: 0.5806

— US20120122727A1, “IN VITRO METHOD FOR PREDICTING WHETHER A COMPOUND IS GENOTOXIC IN VIVO” (priority 2009, published 2012)
